Test systems include MDA-N; COLO 205; TK-10; EKVX; RXF 393; SNB-19; Hs-578T; BT-549; PC-3; SK-MEL-2; HCT-116; UACC-257; SF-295; SK-MEL-28; CCRF-CEM; MCF7; SK-MEL-5; M14; T47D.
Test in all cases: DTP human tumour cell line panel, 48 h

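Step 1: Grow cells in 96-well plates. Step 2: Expose to compound for 48 hours at 5 concentrations. Step 3: Interpolate endpoints linearly; if unreached, use highest concentration. GI50 marks 50% less growth.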 The source made the active and inactive calls. No stated cut-off is given here; in the data, active = GI50 up to about 1.1 µM and inactive = higher.

With `COC(=O)c1nc2n(n1)-c1ccccc1C(=O)N(Cc1ccccc1)C2`, the GI50 in the assay on MDA-N, in the assay with COLO 205, in the assay with TK-10, in the assay on EKVX, in the assay on RXF 393 and in the assay with SNB-19 was > 100 µM (inactive) each time. Also, the GI50 in the assay on Hs-578T, with BT-549, with PC-3, in the assay with SK-MEL-2, in the assay on HCT-116 and in the assay on UACC-257 was > 100 µM (inactive) throughout. Moreover, the GI50 in the assay with SF-295, with SK-MEL-28, with CCRF-CEM, in the assay on MCF7, in the assay with SK-MEL-5 and with M14 was > 100 µM (inactive) each time. Further, in the assay on T47D, the GI50 was > 100 µM (inactive).
Consider `O=C1c2cc(Cl)ccc2N=C(NC2CCCC2)C2CSCN12` (stereo not given), for which the GI50 with MDA-N is > 100 µM (inactive); in the assay on COLO 205 it was > 100 µM (inactive); with TK-10, > 100 µM (inactive); in the assay on EKVX it was 46.6 µM (inactive); in the assay with RXF 393 it was 92.9 µM (inactive); in the assay on SNB-19, > 100 µM (inactive). Further, the GI50 with Hs-578T was 39.6 µM (inactive); with BT-549, > 100 µM (inactive); in the assay with PC-3, 55.8 µM (inactive); with SK-MEL-2 it was 36.2 µM (inactive); in the assay on HCT-116, > 100 µM (inactive); with UACC-257, 71.6 µM (inactive). Further, the GI50 is > 100 µM (inactive) with SF-295; > 100 µM (inactive) in the assay with SK-MEL-28; 45.2 µM (inactive) in the assay with CCRF-CEM; > 100 µM (inactive) with MCF7; 46.1 µM (inactive) with SK-MEL-5; 91.2 µM (inactive) with M14. Further, the GI50 with T47D was 42 µM (inactive).
For the compound `O=C(c1ccc(Cl)c(Cl)c1)N(C(=S)OC12CC3CC(CC(C3)C1)C2)c1ccccc1`, the GI50 in the assay on MDA-N was 32.7 µM (inactive); in the assay with COLO 205 it was 15.9 µM (inactive); in the assay on TK-10, 66.8 µM (inactive); with EKVX, 20.8 µM (inactive); in the assay on RXF 393 it was > 100 µM (inactive); with SNB-19 it was 33.3 µM (inactive). For the same compound, the GI50 in the assay with Hs-578T is 41.3 µM (inactive); with BT-549, 36 µM (inactive); with PC-3, 39.9 µM (inactive); in the assay on SK-MEL-2, 20 µM (inactive); in the assay on HCT-116 it was 24.8 µM (inactive); in the assay on UACC-257, 41.2 µM (inactive). The GI50 in the assay on SF-295 was 36.1 µM (inactive); in the assay with SK-MEL-28, 44.6 µM (inactive); with CCRF-CEM, 2.8 µM (inactive); in the assay on MCF7, 28 µM (inactive); in the assay on SK-MEL-5, 19.5 µM (inactive); in the assay with M14 it was 20.8 µM (inactive). Also, the GI50 in the assay on T47D was 54.6 µM (inactive).
Consider `CC(=O)OCCCCN1C(=O)CSc2ccccc21`, for which the GI50 in the assay on MDA-N, with TK-10, with EKVX, with RXF 393, with SNB-19 and in the assay on Hs-578T was > 100 µM (inactive) each time. The GI50 in the assay on BT-549 was 4.2 µM (inactive); in the assay with PC-3, > 100 µM (inactive); in the assay with SK-MEL-2, > 100 µM (inactive); with HCT-116 it was > 100 µM (inactive); in the assay with UACC-257, > 100 µM (inactive); in the assay with SF-295 it was > 100 µM (inactive). Besides, the GI50 with SK-MEL-28 was > 100 µM (inactive); in the assay on CCRF-CEM, > 100 µM (inactive); in the assay on MCF7, > 100 µM (inactive); with SK-MEL-5, 66.5 µM (inactive); in the assay on T47D it was > 100 µM (inactive).
Turning to `Cn1c(=O)c2nc(CCCc3ccc([N+](=O)[O-])cc3)[nH]c2n(C)c1=O`, the GI50 in the assay on MDA-N, with COLO 205, in the assay on TK-10, in the assay on EKVX, in the assay with RXF 393 and with SNB-19 was > 100 µM (inactive) in each case. Also, the GI50 in the assay with Hs-578T, with BT-549, in the assay on PC-3, with SK-MEL-2, in the assay with HCT-116 and with UACC-257 was > 100 µM (inactive) each time. Besides, the GI50 in the assay on SF-295 was > 100 µM (inactive); in the assay on SK-MEL-28, > 100 µM (inactive); with MCF7, > 100 µM (inactive); in the assay on SK-MEL-5, 59.3 µM (inactive); in the assay on M14, > 100 µM (inactive); with T47D, > 100 µM (inactive).
With `CCN(CCO)CC1CCCC2CCCCC21` (stereo not given), the GI50 in the assay with MDA-N, in the assay on COLO 205, with TK-10, in the assay with EKVX, in the assay with RXF 393 and with SNB-19 was > 100 µM (inactive) each time. The GI50 in the assay on Hs-578T, in the assay with BT-549, in the assay on PC-3, in the assay with SK-MEL-2, with HCT-116 and in the assay on UACC-257 was > 100 µM (inactive) throughout. In addition, the GI50 in the assay with SF-295, in the assay on SK-MEL-28, with MCF7, with SK-MEL-5, in the assay on M14 and with T47D was > 100 µM (inactive) each time.
As for `COc1cccc(/N=N/C(=N/NC(=O)c2cc(Cl)ccc2O)c2ccc(N(CCC#N)CCC#N)cc2C)c1`, the GI50 in the assay on MDA-N was 41.1 µM (inactive); in the assay on COLO 205 it was 6.21 µM (inactive); in the assay on TK-10, 48.8 µM (inactive); in the assay on EKVX, 20.3 µM (inactive); with RXF 393, 38.1 µM (inactive); in the assay with SNB-19, 53.5 µM (inactive). Besides, the GI50 in the assay on Hs-578T is 33.2 µM (inactive); with BT-549, 34.3 µM (inactive); in the assay with PC-3, 23.2 µM (inactive); in the assay with SK-MEL-2, 57 µM (inactive); in the assay with HCT-116, 18.8 µM (inactive); with UACC-257, 10.1 µM (inactive). The GI50 is 37.3 µM (inactive) in the assay on SF-295; 15.3 µM (inactive) with CCRF-CEM; 7.8 µM (inactive) in the assay on MCF7; 29.9 µM (inactive) in the assay with SK-MEL-5; 42.3 µM (inactive) in the assay on M14; 7.35 µM (inactive) in the assay with T47D.
Consider `Cc1[nH]c2[nH]c(=S)nc(NC(N)=S)c2c1Cc1ccccc1`, for which the GI50 is 22.7 µM (inactive) with MDA-N; 15.1 µM (inactive) in the assay with COLO 205; 62.8 µM (inactive) with TK-10; 48.4 µM (inactive) in the assay with EKVX; 97.9 µM (inactive) in the assay on SNB-19; 18.9 µM (inactive) with Hs-578T. Further, the GI50 with BT-549 is 14.3 µM (inactive); in the assay with PC-3 it was 47 µM (inactive); in the assay on SK-MEL-2 it was 93.1 µM (inactive); with HCT-116 it was 31.8 µM (inactive); in the assay with UACC-257, 54.3 µM (inactive); in the assay with SF-295, 35.2 µM (inactive). For the same compound, the GI50 in the assay on SK-MEL-28 is 21.9 µM (inactive); with CCRF-CEM, 21.9 µM (inactive); in the assay with MCF7, 38.1 µM (inactive); with SK-MEL-5, 13.4 µM (inactive); with M14, 42.3 µM (inactive); in the assay on T47D, 21.8 µM (inactive).
As for `O=C(c1ccccc1)C1N=NCC1c1ccc([N+](=O)[O-])cc1` (stereo not given), the GI50 in the assay with MDA-N is 29.6 µM (inactive); in the assay with COLO 205, 39.4 µM (inactive); with TK-10, 34 µM (inactive); in the assay on EKVX it was 89.1 µM (inactive); in the assay on SNB-19 it was 54.8 µM (inactive); with Hs-578T, 34.8 µM (inactive). The GI50 is 24.2 µM (inactive) in the assay on BT-549; 54.8 µM (inactive) in the assay with PC-3; 46.9 µM (inactive) in the assay with SK-MEL-2; 51.8 µM (inactive) in the assay on HCT-116; 27 µM (inactive) in the assay on UACC-257; > 100 µM (inactive) with SF-295. Also, the GI50 in the assay on SK-MEL-28 was 61.5 µM (inactive); in the assay on CCRF-CEM, 0.935 µM (active); in the assay with MCF7 it was 22.4 µM (inactive); in the assay on SK-MEL-5 it was 26.1 µM (inactive); in the assay with M14, 48.9 µM (inactive); with T47D, 3.91 µM (inactive).
For `Nc1nc(N)c2cc(CNc3ccc(C(=O)NC(CC(=O)O)C(=O)O)c(Cl)c3)ccc2n1` (stereo not given), the 50% growth inhibitory concentration (GI50) with MDA-N is < 0.01 µM (active); in the assay with COLO 205, 0.861 µM (active); in the assay on TK-10, 0.0803 µM (active); in the assay on RXF 393, 61 µM (inactive); with SNB-19, 0.248 µM (active); in the assay on Hs-578T, 357 µM (inactive). Besides, the GI50 is 25.8 µM (inactive) in the assay with BT-549; 10.1 µM (inactive) in the assay with PC-3; 15 µM (inactive) in the assay on SK-MEL-2; < 0.01 µM (active) in the assay with HCT-116; 0.259 µM (active) in the assay with UACC-257; 0.0698 µM (active) with SF-295. In addition, the GI50 with SK-MEL-28 is 0.288 µM (active); with CCRF-CEM it was 0.0342 µM (active); with MCF7, 0.0507 µM (active); in the assay with SK-MEL-5, 0.162 µM (active); in the assay on M14, 0.0743 µM (active); in the assay on T47D, 0.524 µM (active).
Consider `CC1CCc2sc3nc4n(c(=O)c3c2C1)CC(C)S4` (stereo not given), for which the GI50 is 28.4 µM (inactive) with MDA-N; 18 µM (inactive) in the assay with COLO 205; 25.1 µM (inactive) in the assay on TK-10; 15.1 µM (inactive) in the assay with EKVX; 15.4 µM (inactive) with RXF 393; 27.7 µM (inactive) in the assay with SNB-19. The GI50 is 39.9 µM (inactive) with Hs-578T; 27.5 µM (inactive) in the assay on BT-549; 22.5 µM (inactive) in the assay on PC-3; 19.5 µM (inactive) in the assay with SK-MEL-2; 23.3 µM (inactive) in the assay with HCT-116; 20.2 µM (inactive) in the assay on UACC-257. Further, the GI50 with SF-295 was 14.3 µM (inactive); in the assay with SK-MEL-28, 25.9 µM (inactive); in the assay with MCF7, 24 µM (inactive); with SK-MEL-5, 18.9 µM (inactive); with M14 it was 25.4 µM (inactive); with T47D, 22.4 µM (inactive).

The term GI50 denotes the concentration that inhibits growth by half.

The values are drawn from ChEMBL document CHEMBL1201862, “PubChem BioAssay data set” (2004).
